According to patent EP1203770A1 (priority 1992, dated 1994):

Target: T1, HIV-1 protease (Human immunodeficiency virus type 1 group M subtype B, UniProt P04585)
T1 construct: The protease (or proteinase), consisting of only 99 amino acids, is among the smallest enzymes known
Assay: In vitro HIV protease inhibitory assay (HIV Protease FITC Assay)
Type: biochemical
Conditions: for inhibition at 1 µM: HIV-1 Dose 1.000 uM; for inhibition at 10 µM: HIV-1 Dose 10.000 uM; for inhibition at 100 µM: HIV-1 Dose 100.000 uM; for Ki: read-out: HIV-1 FITC Ki; for inhibition at 0.123 µM: HIV-1 Dose 0.123 uM; for inhibition at 0.37 µM: HIV-1 Dose 0.370 uM; for inhibition at 1.1 µM: HIV-1 Dose 1.100 uM; for inhibition at 3.3 µM: HIV-1 Dose 3.300 uM; for inhibition at 30 µM: HIV-1 Dose 30.000 uM
Method in brief: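 Biotin/FITC-labelled peptide substrate cleaved by HIV-1 protease for 1 h at room temperature in the dark, in 0.1 M sodium acetate pH 5.5, 1.0 M NaCl, 0.05% NP-40. Uncleaved substrate captured on avidin beads and separated by filtration; fluorescence gave % inhibition.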

[1] = read-out: HIV-1 Protease % Inhib

Row | Compound | inhibition at 1 µM [1] [%] | inhibition at 10 µM [1] [%] | inhibition at 100 µM [1] [%] | Ki [µM] | inhibition at 0.123 µM [1] [%] | inhibition at 0.37 µM [1] [%] | inhibition at 1.1 µM [1] [%] | inhibition at 3.3 µM [1] [%] | inhibition at 30 µM [1] [%] | inhibition at 0.41 µM (HIV-1 Dose 0.410 uM, read-out: HIV-1 Protease % Inhib) [%] | inhibition at 1.23 µM (HIV-1 Dose 1.230 uM, read-out: HIV-1 Protease % Inhib) [%] | inhibition at 3.7 µM (HIV-1 Dose 3.700 uM, read-out: HIV-1 Protease % Inhib) [%] | inhibition at 11 µM (HIV-1 Dose 11.000 uM, read-out: HIV-1 Protease % Inhib) [%] | inhibition at 33 µM (HIV-1 Dose 33.000 uM, read-out: HIV-1 Protease % Inhib) [%]
1 | CCCC1(c2ccccc2)CC(O)=C(C(CC)c2cccc(O)c2)C(=O)O1 (stereo not shown) [Example 30, 5,6-Dihydro-4-hydroxy-6-phenyl-6-propyl-3-[1-(3-hydroxyphenyl)-propyl]-2H-pyran-2-one] | 46.4 | 86 | 75.7 |  |  |  |  |  |  |  |  |  |  | 
2 | CC[C@H](Cc1ccccc1)c1cc(O)c([C@@H](CC)c2ccccc2)c(=O)o1 [Example 189, 3-([S]-α-ethylbenzyl)-4-hydroxy-6-([R]-α-ethylphenethyl)-2H-pyran-2-one] |  |  |  | ~0.015 |  |  |  |  |  |  |  |  |  | 
3 | O=c1oc(CC(O)c2ccoc2)cc(O)c1C(c1ccccc1)C1CC1 (stereo not drawn) [Example 152, 3-(α-cyclopropylbenzyl)-4-hydroxy-6-(2-(furan-3-yl)-2-hydroxyethyl)-2H-pyran-2-one] |  | 77.6 | 110 |  | < 10 | < 10 | 26.4 | 48.8 | 90.5 |  |  |  |  | 
4 | CCC(Cc1ccccc1)c1cc(O)c(C2(c3ccccc3)CCC2)c(=O)o1 (stereo not shown) [Example 124, 4-Hydroxy-3-(1-phenylcyclobutyl)-6-[1-(phenylmethyl)propyl]-2H-pyran-2-one] |  | 53.4 |  |  | < 10 | < 10 | < 10 | 27.5 | 64.8 |  |  |  |  | 
5 | O=c1oc(CCCC(F)(F)F)cc(O)c1C(c1ccccc1)C1CC1 (stereo not shown) [Example 118, 3-(Cyclopropyl-phenyl-methyl)-4-hydroxy-6-(4,4,4-trifluoro-butyl)-pyran-2-one] |  | 83.9 |  |  | < 10 | < 10 | 20 | 52.4 | 102 |  |  |  |  | 
6 | CCC(CCc1ccsc1)c1cc(O)c(C(c2ccccc2)C2CC2)c(=O)o1 (stereo not shown) [Example 71, 3-(Cyclopropyl-phenyl-methyl)-6-(1-ethyl-3-thiophen-3-yl-propyl)-4-hydroxy-pyran-2-one] |  | 95.3 |  | 0.054 | 11.6 | 46.3 | 75 | 84 | 96.4 |  |  |  |  | 
7 | CCCC1(Cc2ccccc2)CC(O)=C(C(C=Cc2ccccc2)c2ccccc2)C(=O)O1 (stereo not shown) [Example 176, 3-(1,3-Diphenyl-2-propenyl)-5,6-dihydro-4-hydroxy-6-(phenylmethyl)-6-propyl-2H-pyran-2-one] |  | 88.7 |  |  | < 10 | < 10 | 28.9 | 62.3 | 101 |  |  |  |  | 
8 | CCC(C1=C(O)CC2(CCC(O)CC2)OC1=O)c1ccccc1 (stereo not shown) [Example 116, 4,9-Dihydroxy-3-(1-phenyl-propyl)-1-oxa-spiro[5.5]undec-3-en-2-one] |  | 62 |  |  | < 10 | < 10 | < 10 | 31.1 | 89.9 |  |  |  |  | 
9 | CCC(Cc1ccccc1)c1cc(O)c(C(c2cccc(NC(=O)c3ccc(C#N)cc3)c2)C2CC2)c(=O)o1 (stereo not shown) [Example 227] |  | 89.8 |  |  | < 10 | 19.6 | 49.2 | 80.2 | 85.4 |  |  |  |  | 
10 | O=C1OC(Cc2ccccc2)(c2ccccc2)CC(O)=C1C(/C=C/c1ccccc1)c1ccccc1 (stereo not shown) [Example 172, 3-(1,3-Diphenyl-2-propenyl)-5,6-dihydro-4-hydroxy-6-phenyl-6-(phenylmethyl)-2H-pyran-2-one] |  | 56.8 |  |  | < 10 | < 10 | 11.7 | 29.5 | 60.6 |  |  |  |  | 
11 | CCC(C1=C(O)CC2(CCC(=O)CC2)OC1=O)c1ccccc1 (stereo not shown) [Example 115, 4-Hydroxy-3-(1-phenyl-propyl)-1-oxa-spiro[5.5]undec-3-ene-2,9-dione] |  |  | 94.8 | 1.16 |  |  |  |  |  | < 10 | 27.1 | 56.9 | 91.5 | 103
12 | CCC1(CC)CC(=O)C(CCCc2ccccc2)C(=O)O1 (stereo not shown) [Example 27, 6,6-Diethyl-3-(3-phenylpropyl)-tetrahydropyran-2,4-dione] | 14.7 | 41.4 | 90.5 |  |  |  |  |  |  |  |  |  |  | 
